Where two headings read alike, the source gives them in different places.
Assays:
HEP3B cells = assay: Fluorescent labeling of fixed HEP3B cells expressing Lewis Y (microscopy, densitometry); assay type: cell-based; conditions: 1 μM compound
Experimental: (§1) Cell culture. HEPG2 and COS7 cells were maintained in RPMI media (G. E. Moore et al. (1967) J. Am. Med. Assoc. 199, 519-524) with 10% FBS (GIBCO). HEP3B cells were maintained in RPMI with 10% FBS and 1× sodium pyruvate and 1× non-essential amino acids (GIBCO).
(§2) Fluorescent labeling studies. 6-well plates were seeded with 1×10^6 cells per well and incubated at 37° C. and 5% CO2 for 48 h. The media was removed and cells were washed twice with 1×PBS. The cells were fixed with 1.5 mL of 1:1 methanol/PBS and incubated 20 minutes at 4° C. After incubation, the methanol/PBS solution was removed and cells were washed twice with PBS.
(§3) Diboronic acid compounds 7 were resuspended in 1:1 methanol/PBS and added to wells at 0.5 to 10 μM concentrations. One well was incubated only in methanol/PBS without compound as a negative control. The plates were then incubated in darkness at 4° C. for 45 min. Plates were examined with phase contrast microscopy followed by fluorescent microscopy (blue cube wavelengths 370 nm excitation, 426 nm emission; 20× lens). Plates were photographed using a Nikon DXM1200 digital camera and images captured with the Nikon ACT-1 program (v 2.10). The phase contrast and fluorescent images were then overlaid, organized and labeled using Adobe Photoshop 6.0. The images were quantified with NIH ImageJ 1.28. The units (mean gray value) were subtracted from background, where there are no cells. The fluorescent signal was stable for at least 96 h when cells were maintained in darkness.
(§4) HEPG2, a cell line that selectively expresses sLex on the surface, was selected for examination. To examine the selectivity of the sensor for cell surface sLex, HEP3B and COS7 cells were labeled in parallel. COS7 expresses none of the fucosylated antigens associated with carcinoma progression and HEP3B expresses only the Lewis Y antigen. See B. W. Weston et al. (1992) J. Biol. Chem. 267, 4152-4160; B. W. Weston et al. (1992) J. Biol. Chem. 267, 24575-24584.
(§5) HEPG2 and control cell lines were incubated with compound 7q, while three other diboronic acids (7b, 7d, 7y) were used as controls. […]

[1] = Fluorescence titration of sensor compounds with fructose; assay type: binding; conditions: 50% MeOH/0.1 M phosphate buffer pH 7.4, sensor 1×10^−6 M, 25° C.
Experimental: (§6) The affinity and selectivity of the fluorescent sensor compounds (7) for glucose were evaluated. Specifically, 2 mL of a solution of each sensor compound (7) in methanol (2×10^−6 M) was mixed with 2 mL of aqueous saccharide phosphate buffer solution (pH 7.4) at various concentrations, and the fluorescence intensity recorded. […] This represents a 43- and 49-fold selectivity over fructose and galactose, respectively. In addition, fluorescence enhancement was very large (about 7-fold).

HEPG2 cells = assay: Fluorescent labeling of fixed HEPG2 cells expressing sLex (microscopy, densitometry); assay type: cell-based; conditions: 1 μM compound
Experimental: as §1, §2, §3, §4, §5

[2] = Fluorescence titration of sensor compounds with galactose; assay type: binding; conditions: 50% MeOH/0.1 M phosphate buffer pH 7.4, sensor 1×10^−6 M, 25° C.
Experimental: as §6

[3] = Fluorescence titration of sensor compounds with glucose; assay type: binding
Experimental: as §6

[4] = Binding of fluorescent compounds 7 to sLex in solution (fluorescence intensity change); conditions: solution binding studies
Experimental: Diboronic acid compounds 7 were designed to show significant fluorescence intensity changes upon binding with a complementary carbohydrate. In screening for their binding with the target carbohydrate, sLex, the fluorescence intensity changes of solutions of the compounds upon addition of the carbohydrate were determined. These experiments were conducted in a mixture of methanol and 0.1 M phosphate buffer (pH 7.4) (1:1, v/v). Methanol was used to improve the solubility of the sensor compounds. The concentration of fluorescent sensor compound (7) (specific structures provided in FIG. 1, above) was fixed at 1×10^−5 or 1×10^−6 M, and the concentration of sLex was set at 60 μM.

[5] = Solution binding studies with Lewis Y (data not shown)
[6] = Springsteen et al.; cited from earlier work
[7] = Springsteen et al.; cited from earlier work; remark: listed apart in the source

CN(Cc1ccccc1B(O)O)Cc1c2ccccc2c(CN(C)C(=O)Cc2ccccc2CC(=O)N(C)Cc2c3ccccc3c(CN(C)Cc3ccccc3B(O)O)c3ccccc23)c2ccccc12 [Compound 7b]
labeling of HEP3B cells (mean gray value) (HEP3B cells): avidly bound Lewis Y-expressing HEP3B cells
Ka for fructose [1]: 34 M⁻¹
labeling of HEPG2 cells (mean gray value) (HEPG2 cells): did not recognize sLex on HEPG2 cells
Ka for galactose [2]: 30 M⁻¹
Ka for glucose ([3]; 50% MeOH/0.1 M phosphate buffer pH 7.4, sensor 1×10^−6 M, 25° C.): 1472 M⁻¹
glucose concentration region of most sensitive fluorescence intensity changes ([3]; FIG. 8): mM region
selectivity for glucose over fructose ([3]; ratio of Ka): 43 fold
selectivity for glucose over galactose ([3]; ratio of Ka): 49 fold
improvement in affinity for glucose compared with PBA ([3]; versus phenylboronic acid): about 300 fold
improvement in selectivity for glucose over fructose compared with PBA ([3]; versus phenylboronic acid): about 1400 fold

CN(Cc1ccccc1B(O)O)Cc1c2ccccc2c(CN(C)C(=O)CCc2ccc(CCC(=O)N(C)Cc3c4ccccc4c(CN(C)Cc4ccccc4B(O)O)c4ccccc34)cc2)c2ccccc12 [Compound 7d]
labeling of HEP3B cells (mean gray value) (HEP3B cells): did not label HEPG2 or HEP3B
affinity for sLex in solution [4]: low affinity
affinity for Lewis Y in solution [5]: low affinity
labeling of HEPG2 cells (mean gray value) (HEPG2 cells): did not label HEPG2 or HEP3B

CN(Cc1ccccc1B(O)O)Cc1c2ccccc2c(CN(C)C(=O)CCCCC(=O)N(C)Cc2c3ccccc3c(CN(C)Cc3ccccc3B(O)O)c3ccccc23)c2ccccc12 [Compound 7y]
labeling of HEP3B cells (mean gray value) (HEP3B cells): recognized surface sLex and Lewis Y with equal avidity
labeling of HEPG2 cells (mean gray value) (HEPG2 cells): recognized surface sLex and Lewis Y with equal avidity

OB(O)c1ccccc1 [PBA, phenylboronic acid]
Ka for glucose [6]: 5 M⁻¹
Ka for fructose [7]: 162 M⁻¹

Source: patent publication US6916660B2, “Fluorescent sensor compounds for detecting saccharides” (North Carolina State University, priority 2002, dated 2005)
